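Tested at 5 concentrations; 48 h exposure; 96-well plates; endpoints linearly interpolated, else capped at highest concentration. At the GI50, growth is halved. Definition used: TGI = concentration required for complete inhibition of growth.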
Assays:
Assay in all cases: DTP human tumour cell line panel, 48 h
MDA-MB-231 breast = tested on: MDA-MB-231 breast
T-47D breast = tested on: T-47D breast
MCF7 breast = tested on: MCF7 breast
SW-620 colon = tested on: SW-620 colon
HT29 colon = tested on: HT29 colon
UO-31 renal = tested on: UO-31 renal
OVCAR-4 ovarian = tested on: OVCAR-4 ovarian
BT-549 breast = tested on: BT-549 breast
SF-539 CNS = tested on: SF-539 CNS
NCI-H522 lung = tested on: NCI-H522 lung
A549 NSCLC = tested on: A549 NSCLC
HCT-116 colon = tested on: HCT-116 colon
ACHN renal = tested on: ACHN renal
CAKI-1 renal = tested on: CAKI-1 renal
SNB-75 CNS = tested on: SNB-75 CNS
LOX IMVI melanoma = tested on: LOX IMVI melanoma
DU-145 prostate = tested on: DU-145 prostate
SR leukemia = tested on: SR leukemia
SF-268 CNS = tested on: SF-268 CNS
SF-295 CNS = tested on: SF-295 CNS
SK-MEL-2 melanoma = tested on: SK-MEL-2 melanoma
HS 578T breast = tested on: HS 578T breast
OVCAR-8 ovarian = tested on: OVCAR-8 ovarian
SK-MEL-28 melanoma = tested on: SK-MEL-28 melanoma
SK-OV-3 ovarian = tested on: SK-OV-3 ovarian
HCT-15 colon = tested on: HCT-15 colon
MALME-3M melanoma = tested on: MALME-3M melanoma
SNB-19 CNS = tested on: SNB-19 CNS
NCI-H23 lung = tested on: NCI-H23 lung
K-562 leukemia = tested on: K-562 leukemia
MOLT-4 leukemia = tested on: MOLT-4 leukemia
UACC-62 melanoma = tested on: UACC-62 melanoma
NCI-H460 lung = tested on: NCI-H460 lung
NCI/ADR-RES ovarian = tested on: NCI/ADR-RES ovarian
RXF 393 renal = tested on: RXF 393 renal
RPMI-8226 leukemia = tested on: RPMI-8226 leukemia
OVCAR-5 ovarian = tested on: OVCAR-5 ovarian
KM12 colon = tested on: KM12 colon
A498 renal = tested on: A498 renal
EKVX NSCLC = tested on: EKVX NSCLC
HOP-92 NSCLC = tested on: HOP-92 NSCLC
UACC-257 melanoma = tested on: UACC-257 melanoma
MDA-MB-435 = tested on: MDA-MB-435
M14 melanoma = tested on: M14 melanoma
IGROV1 ovarian = tested on: IGROV1 ovarian
HL-60(TB) leukemia = tested on: HL-60(TB) leukemia
CCRF-CEM leukemia = tested on: CCRF-CEM leukemia
PC-3 prostate = tested on: PC-3 prostate
TK-10 renal = tested on: TK-10 renal
HOP-62 NSCLC = tested on: HOP-62 NSCLC
COLO 205 colon = tested on: COLO 205 colon
HCC-2998 colon = tested on: HCC-2998 colon
OVCAR-3 ovarian = tested on: OVCAR-3 ovarian
SK-MEL-5 melanoma = tested on: SK-MEL-5 melanoma
786-0 renal = tested on: 786-0 renal
U251 CNS = tested on: U251 CNS
NCI-H226 lung = tested on: NCI-H226 lung
SN12C renal = tested on: SN12C renal

O=c1oc2ccc(F)cc2c(=O)n1-c1ccc(Cl)cc1F
GI50 (MDA-MB-231 breast): 675 nM | TGI (MDA-MB-231 breast): 6330 nM | GI50 (T-47D breast): 661 nM | TGI (T-47D breast): 5460 nM | GI50 (MCF7 breast): 1950 nM | TGI (MCF7 breast): > 29000 nM | GI50 (SW-620 colon): 1240 nM | TGI (SW-620 colon): 21200 nM | GI50 (HT29 colon): 3290 nM | TGI (HT29 colon): > 34200 nM | GI50 (UO-31 renal): 264 nM | TGI (UO-31 renal): 2520 nM | GI50 (OVCAR-4 ovarian): 737 nM | TGI (OVCAR-4 ovarian): 7680 nM | GI50 (BT-549 breast): 488 nM | TGI (BT-549 breast): 2430 nM | GI50 (SF-539 CNS): 564 nM | TGI (SF-539 CNS): 6790 nM | GI50 (NCI-H522 lung): 363 nM | TGI (NCI-H522 lung): 4500 nM | GI50 (A549 NSCLC): 2170 nM | TGI (A549 NSCLC): > 100000 nM | GI50 (HCT-116 colon): 563 nM | TGI (HCT-116 colon): 2820 nM | GI50 (ACHN renal): 700 nM | TGI (ACHN renal): 11800 nM | GI50 (CAKI-1 renal): 360 nM | TGI (CAKI-1 renal): 3410 nM | GI50 (SNB-75 CNS): 375 nM | TGI (SNB-75 CNS): 2650 nM | GI50 (LOX IMVI melanoma): 527 nM | TGI (LOX IMVI melanoma): 6970 nM | GI50 (DU-145 prostate): 1100 nM | TGI (DU-145 prostate): 22000 nM | GI50 (SR leukemia): 619 nM | TGI (SR leukemia): > 39100 nM | GI50 (SF-268 CNS): 879 nM | TGI (SF-268 CNS): 11700 nM | GI50 (SF-295 CNS): 1820 nM | TGI (SF-295 CNS): 3660 nM | GI50 (SK-MEL-2 melanoma): 420 nM | TGI (SK-MEL-2 melanoma): 2530 nM | GI50 (HS 578T breast): 572 nM | TGI (HS 578T breast): 5770 nM | GI50 (OVCAR-8 ovarian): 2050 nM | TGI (OVCAR-8 ovarian): 26200 nM | GI50 (SK-MEL-28 melanoma): 456 nM | TGI (SK-MEL-28 melanoma): 2920 nM | GI50 (SK-OV-3 ovarian): 584 nM | TGI (SK-OV-3 ovarian): 2580 nM | GI50 (HCT-15 colon): 1260 nM | TGI (HCT-15 colon): 10300 nM | GI50 (MALME-3M melanoma): 403 nM | TGI (MALME-3M melanoma): 2510 nM | GI50 (SNB-19 CNS): 541 nM | TGI (SNB-19 CNS): > 100000 nM | GI50 (NCI-H23 lung): 604 nM | TGI (NCI-H23 lung): 5160 nM | GI50 (K-562 leukemia): 509 nM | TGI (K-562 leukemia): > 100000 nM | GI50 (MOLT-4 leukemia): 2000 nM | TGI (MOLT-4 leukemia): 5270 nM | GI50 (UACC-62 melanoma): 330 nM | TGI (UACC-62 melanoma): 1560 nM | GI50 (NCI-H460 lung): 619 nM | TGI (NCI-H460 lung): 12200 nM | GI50 (NCI/ADR-RES ovarian): 1180 nM | TGI (NCI/ADR-RES ovarian): 9310 nM | GI50 (RXF 393 renal): 974 nM | TGI (RXF 393 renal): 4480 nM | GI50 (RPMI-8226 leukemia): 356 nM | TGI (RPMI-8226 leukemia): 1900 nM | GI50 (OVCAR-5 ovarian): 3730 nM | TGI (OVCAR-5 ovarian): > 100000 nM | GI50 (KM12 colon): 2110 nM | TGI (KM12 colon): 5840 nM | GI50 (A498 renal): 240 nM | TGI (A498 renal): 796 nM | GI50 (EKVX NSCLC): 1610 nM | TGI (EKVX NSCLC): 8140 nM | GI50 (HOP-92 NSCLC): 205 nM | TGI (HOP-92 NSCLC): 613 nM | GI50 (UACC-257 melanoma): 660 nM | TGI (UACC-257 melanoma): 4540 nM | GI50 (MDA-MB-435): 674 nM | TGI (MDA-MB-435): 5480 nM | GI50 (M14 melanoma): 594 nM | TGI (M14 melanoma): 4550 nM | GI50 (IGROV1 ovarian): 532 nM | TGI (IGROV1 ovarian): > 45800 nM | GI50 (HL-60(TB) leukemia): 578 nM | TGI (HL-60(TB) leukemia): 2730 nM | GI50 (CCRF-CEM leukemia): 2620 nM | TGI (CCRF-CEM leukemia): 13000 nM | GI50 (PC-3 prostate): 1500 nM | TGI (PC-3 prostate): 6320 nM | GI50 (TK-10 renal): 3730 nM | TGI (TK-10 renal): 12200 nM | GI50 (HOP-62 NSCLC): 1570 nM | TGI (HOP-62 NSCLC): 6530 nM | GI50 (COLO 205 colon): 2140 nM | TGI (COLO 205 colon): 4870 nM | GI50 (HCC-2998 colon): 2890 nM | TGI (HCC-2998 colon): 10800 nM | GI50 (OVCAR-3 ovarian): 550 nM | TGI (OVCAR-3 ovarian): 12500 nM | GI50 (SK-MEL-5 melanoma): 290 nM | TGI (SK-MEL-5 melanoma): 890 nM | GI50 (786-0 renal): 2800 nM | TGI (786-0 renal): 8850 nM | GI50 (U251 CNS): 868 nM | TGI (U251 CNS): > 59800 nM | GI50 (NCI-H226 lung): 1220 nM | TGI (NCI-H226 lung): 4910 nM | GI50 (SN12C renal): 495 nM | TGI (SN12C renal): 6920 nM

— PubChem BioAssay (NCI)
